Measurements as given in patent US10898460B1, “Leishmania inhibitors” (University of South Florida, priority 2018, dated 2021).

Tested on: Leishmania donovani
Assay: Bioassay against Leishmania donovani
Assay type: cell-based
Text: Marine invertebrates from Antarctica have been investigated for their potential natural product chemistry. Often sessile, these organisms must develop chemical protective mechanisms to survive and defend themselves against predators. The biodiversity of these organisms is of particular interest due to the extremely low temperatures and the circumpolar current around the Antarctic continent serving as an ecological isolating shield. The chemodiversity that emanates from these organisms can be a significant source of chemistry to be further developed into new drugs. The chemical investigation of an undescribed Gersemia sp. Antarctic coral has led to the isolation of two different kinds of bioactive compounds. After lyophilization of the organism, two different extractions were performed: the first one used a methylene chloride: methanol (1:1) solvent mixture, and the second one used methylene chloride only as solvent in a Soxhlet extraction. […] One and two-dimensional nuclear magnetic resonance, mass spectrometry, X-ray crystallography, and circular dichroism were the methods performed to elucidate and confirm the structures. Furthermore, biological testing against Leishmania sp. and ESKAPE pathogens, Zika virus, Clostridium difficile, and HeLa cancer cells were performed.
Table 1 details the bioactivity of two Alcyopterosins and ACDL-21.

IC50: 3.1 µM
SMILES: Cc1cc2c(c3c1[C@H](CO[N+](=O)[O-])OC3=O)CC(C)(C)C2 [Alcyopterosin E (2), alcyopterosin E]
